Reference: patent publication US10568874B2, “Indane-amines as PD-L1 antagonists” (CHEMOCENTRYX, INC., priority 2018, dated 2020)

Biological target: human PD-L1 (Homo sapiens (Human), UniProt Q9NZQ7)
Experiment: Enzyme-Linked Immunosorbent Assay (ELISA), PD-1/PD-L1 binding
Details: plate-coated human PD-L1, biotinylated human PD-1
Method: Plates were coated with 1 μg/mL of human PD-L1 (obtained from R&D) in PBS overnight at 4° C. The wells were then blocked with 2% BSA in PBS (W/V) with 0.05% TWEEN-20 for 1 hour at 37° C. The plates were washed 3 times with PBS/0.05% TWEEN-20 and the samples were diluted to 1:5 in dilution medium in the ELISA plates. Human PD-1 and biotin 0.3 μg/mL (ACRO Biosystems) were added and incubated for 1 hour at 37° C. then washed 3 times with PBS/0.05% TWEEN-20. A second block was added with 2% SA in PBS (W/V)/0.05% TWEEN-20 for 10 min at 37° C. and was washed 3 times with PBS/0.05% TWEEN-20. Streptavidin-HRP was added for 1 hour at 37° C. then washed 3 times with PBS/0.05% TWEEN-20. TMB substrate was added and reacted for 20 min at 37° C. A stop solution (2 N aqueous H2SO4) was added. The absorbance was read at 450 nm using a micro-plate spectrophotometer.

human PD-L1, sequence (Q9NZQ7 19-239): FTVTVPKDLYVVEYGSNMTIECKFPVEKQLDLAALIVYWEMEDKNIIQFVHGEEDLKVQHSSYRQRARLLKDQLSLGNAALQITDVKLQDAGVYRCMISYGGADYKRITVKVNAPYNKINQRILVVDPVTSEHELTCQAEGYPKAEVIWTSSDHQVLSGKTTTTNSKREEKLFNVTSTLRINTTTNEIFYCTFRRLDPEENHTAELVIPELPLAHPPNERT

IC50	Compound
5 to 500 nM	CCOc1cc(NC2CCc3c(-c4cccc(OCCCN5CCC(F)CC5)c4C)cccc32)c(Cl)cc1CNC[C@@H]1CCC(=O)N1 (some centres unmarked)
500 to 20000 nM	CCOc1cc(NC2CCc3c(-c4cccc(OCCCN5CCC(F)CC5)c4C)cccc32)c(Cl)cc1CN[C@H]1CCC(=O)NC1 (some centres unmarked)
5 to 500 nM	CCOc1cc(NC2CCc3c(-c4cccc(OCCCN5CCC(C)(F)CC5)c4C)cccc32)c(Cl)cc1CNC[C@@H]1CCC(=O)N1 (some centres unmarked)
500 to 20000 nM	CCOc1cc(NC2CCc3c(-c4cccc(OCCCN5CCC(C)(F)CC5)c4C)cccc32)c(Cl)cc1CN[C@H]1CCC(=O)NC1 (some centres unmarked)
500 to 20000 nM	CCOc1cc(NC2CCc3c(-c4cccc(OCCCN5CCC(C)(F)CC5)c4Cl)cccc32)c(Cl)cc1CN1CCC(O)CC1 (centres unmarked)
500 to 20000 nM	CCOc1cc(NC2CCc3c(-c4cccc(OCCCN5CCC(C)(F)CC5)c4Cl)cccc32)c(Cl)cc1CN[C@H]1CCC(=O)NC1 (some centres unmarked)
5 to 500 nM	CCOc1cc(NC2CCc3c(-c4cccc(OCCCN5CCC(F)CC5)c4C)cccc32)c(Cl)cc1CN[C@@H](CO)C(=O)O (some centres unmarked)
5 to 500 nM	CCOc1cc(NC2CCc3c(-c4ccccc4F)cccc32)c(Cl)cc1CN[C@@H](CO)C(=O)O (stereo partly drawn) [(2S)-2-[[5-chloro-2-ethoxy-4-[[4-(2-fluorophenyl)indan-1-yl]amino]phenyl]methylamino]-3-hydroxy-propanoic Acid]
